The test has as its target human Kv1.3 (Homo sapiens (Human), UniProt P22001). In words: Kv1.3 potency evaluation, automated patch clamp electrophysiology (QPatch HT) in CHO-Kv1.3 cells. Conditions: whole-cell QPatch HT, % inhibition of charge, step to +30 mV, four concentrations, N≥3 cells, read-out: hKv1.3 IC50. The test is classed as cell-based. In short, it runs like this:
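Automated whole-cell patch clamp in CHO cells stably expressing human Kv1.3; steps from −80 to +30 mV (500 ms) at 0.067 Hz. Four cumulative concentrations after vehicle (0.1-0.3% DMSO); charge inhibition vs vehicle fitted by four-parameter logistic for IC50, N≥3 cells.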
(Patch clamp records ionic current or voltage across a cell membrane.)

Chain of human Kv1.3 (P22001 whole entry): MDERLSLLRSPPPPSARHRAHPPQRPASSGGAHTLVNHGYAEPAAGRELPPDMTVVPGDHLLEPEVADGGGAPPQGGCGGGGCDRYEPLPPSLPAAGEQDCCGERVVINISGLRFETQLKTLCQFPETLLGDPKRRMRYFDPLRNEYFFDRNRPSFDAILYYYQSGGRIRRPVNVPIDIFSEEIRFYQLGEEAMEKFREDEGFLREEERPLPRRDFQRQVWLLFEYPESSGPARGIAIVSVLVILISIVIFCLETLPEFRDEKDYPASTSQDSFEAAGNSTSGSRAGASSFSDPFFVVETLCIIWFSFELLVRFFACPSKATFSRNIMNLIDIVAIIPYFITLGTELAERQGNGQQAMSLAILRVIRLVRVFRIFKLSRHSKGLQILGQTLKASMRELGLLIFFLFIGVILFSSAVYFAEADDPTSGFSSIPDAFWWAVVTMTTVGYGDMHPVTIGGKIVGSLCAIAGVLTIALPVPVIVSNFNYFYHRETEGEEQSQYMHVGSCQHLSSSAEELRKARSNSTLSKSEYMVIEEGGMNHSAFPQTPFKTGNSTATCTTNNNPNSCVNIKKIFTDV

As a reminder, the IC50 is the concentration at which inhibition is half-maximal. Regarding `CC(NC(=O)[C@@]1(C)CN=C(C23CC(N(Cc4ccc(C(F)(F)F)cc4)S(=O)(=O)c4ccc(F)cc4)(C2)C3)N1)C1CCC1` (mixture of isomers) [Example 238], the IC50 was determined as 221 nM.

On to `CC1(C)N=C(C23CC(N(Cc4ccc(Cl)cc4)S(=O)(=O)N4CCCC4)(C2)C3)N[C@H]1C(=O)NCCC(F)(F)F` (mixture of isomers) [Example 43], for which the IC50 was 46 nM.

As for `CC1(C)N=C(C23CC(N(Cc4ccc(Cl)c(F)c4)S(=O)(=O)c4ccccc4)(C2)C3)N[C@H]1C(=O)N1CC2(CCC2(F)F)C1` (mixture of isomers) [Example 249], the IC50 was 280 nM.

For the molecule `C[C@]1(C(=O)Nc2ccccc2)CN=C(C23CC(N(Cc4ccc(C(F)(F)F)cc4)S(=O)(=O)c4ccc(F)cc4)(C2)C3)N1` (mixture of isomers) [Example 293], the IC50 amounted to 4080 nM.

With `CC1(C)CCN(C(=O)[C@@]2(C)CN=C(C34CC(N(Cc5ccc(C(F)(F)F)cc5)S(=O)(=O)c5ccc(F)cc5)(C3)C4)N2)C1` (mixture of isomers) [Example 264], the IC50 is 404 nM.

With `CC1(C)N=C(C23CC(N(Cc4ccc(Cl)cc4)S(=O)(=O)c4ccccc4)(C2)C3)N[C@H]1C(=O)NCC(C)(C)C(F)(F)F` (mixture of isomers) [Example 49], the IC50 came to 48 nM.

In the case of `CCN(CCC(F)(F)F)C(=O)[C@@H]1NC(C23CC(N(Cc4ccc(Cl)c(F)c4)S(=O)(=O)c4ccccc4)(C2)C3)=NC1(C)C` (mixture of isomers) [Example 100], the IC50 came out at 67 nM.

Consider `CC1(C)N=C(C23CC(N(Cc4ccc(Cl)c(Cl)c4)S(=O)(=O)CCC(F)F)(C2)C3)N[C@H]1C(=O)NC12CC(C1)C2` (mixture of isomers) [Example 72], for which the IC50 turned out to be 57 nM.

As for `CC1(C)N=C(C23CC(N(Cc4ccc(Cl)c(F)c4)S(=O)(=O)c4ccccc4)(C2)C3)N[C@H]1C(=O)N1CCC(F)(F)CC1` (mixture of isomers) [Example 123], the half-maximal inhibitory concentration (IC50) worked out at 75 nM.

Take `CC1(C)N=C(C23CC(N(Cc4ccc(Cl)c(F)c4)S(=O)(=O)c4ccccc4)(C2)C3)N[C@H]1C(=O)NC12CC(C1)C2` [Example 1, (R)-N-(Bicyclo[1.1.1]pentan-1-yl)-2-(3-(N-(4-chloro-3-fluorobenzyl)phenylsulfonamido)bicyclo[1.1.1]pentan-1-yl)-4,4-dimethyl-4,5-dihydro-1H-imidazole-5-carboxamide]: the IC50 came out at 35 nM.

On to `CC1(C)N=C(C23CC(N(Cc4ccc(Cl)cc4)S(=O)(=O)c4ccccc4Cl)(C2)C3)N[C@H]1C(=O)NCCC(F)(F)F` (mixture of isomers) [Example 107], for which the IC50 is 71 nM.

`CC1(NC(=O)[C@@H]2NC(C34CC(N(Cc5ccc(Cl)c(F)c5)S(=O)(=O)c5ccccc5)(C3)C4)=NC2(C)C)CCC1` (mixture of isomers) [Example 21]: the IC50 was 38 nM.

In the case of `CC(C)NC(=O)[C@@]1(C)CN=C(C23CC(N(Cc4ccc(C(F)(F)F)cc4)S(=O)(=O)c4ccccc4)(C2)C3)N1` (mixture of isomers) [Example 254], the IC50 was found to be 333 nM.

For the molecule `CC1(C)N=C(C23CC(N(Cc4ccc(Cl)cc4)S(=O)(=O)c4ccc[nH]c4=O)(C2)C3)N[C@H]1C(=O)NCCC(F)(F)F` (mixture of isomers) [Example 295], the IC50 worked out at 21400 nM.

With `CN(C(=O)[C@@H]1NC(C23CC(N(Cc4ccc(Cl)c(F)c4)S(=O)(=O)c4ccccc4)(C2)C3)=NC1(C)C)C1CC(F)(F)C1` (mixture of isomers) [Example 151], the IC50 worked out at 90 nM.

For the molecule `CC1(C)N=C(C23CC(N(Cc4ccc(Cl)cc4)S(=O)(=O)CC4CCC4)(C2)C3)N[C@H]1C(=O)NCCC(F)(F)F` (mixture of isomers) [Example 105], the IC50 was determined as 69 nM.

On to `CC1(C)N=C(C23CC(N(Cc4ccc(Cl)c(C#N)c4)S(=O)(=O)c4ccccc4)(C2)C3)N[C@H]1C(=O)NCCC(F)(F)F` (mixture of isomers) [Example 223], for which the IC50 came out at 177 nM.

Take `CC1(C)N=C(C23CC(N(Cc4ccc(Cl)cc4)S(=O)(=O)CCCCF)(C2)C3)N[C@H]1C(=O)NCCC(F)(F)F` (mixture of isomers) [Example 102]: the IC50 is 68 nM.

As to `CC1(C)N=C(C23CC(N(Cc4cccc(F)c4)S(=O)(=O)c4ccccc4)(C2)C3)N[C@H]1C(=O)NCCC(F)(F)F` (mixture of isomers) [Example 40], the IC50 stood at 46 nM.

For the molecule `CC1(C)N=C(C23CC(N(Cc4ccc(Cl)c(F)c4)S(=O)(=O)c4ccccc4)(C2)C3)N[C@H]1C(=O)N1CCC[C@@H](C(F)(F)F)C1` (mixture of isomers) [Example 178], the IC50 amounted to 105 nM.

`CC(F)(F)CCS(=O)(=O)N(Cc1ccc(Cl)c(Cl)c1)C12CC(C3=NC(C)(C)[C@H](C(=O)N4CCC(F)(F)CC4)N3)(C1)C2` (mixture of isomers) [Example 176]: the IC50 stood at 104 nM.

For the molecule `CC(C)NC(=O)[C@@]1(C)CN=C(C23CC(N(Cc4ccc(C(F)(F)F)cc4)S(=O)(=O)c4ccc(F)cc4)(C2)C3)N1C` (mixture of isomers) [Example 213], the IC50 was determined as 152 nM.

With `CC1(C)N=C(C23CC(N(Cc4ccc(Cl)c(F)c4)S(=O)(=O)c4ccccc4)(C2)C3)N[C@H]1C(=O)NCCCC(F)(F)F` (mixture of isomers) [Example 108], the IC50 is 71 nM.

On to `CC1(C)N=C(C23CC(N(Cc4ccc(C(F)(F)F)cc4)S(=O)(=O)c4ccc(F)cc4)(C2)C3)NC1C(=O)NCC1CCC1` (stereo not shown) [Example 192], for which the IC50 came out at 115 nM.

In the case of `CC1(C)N=C(C23CC(N(Cc4ccc(Cl)c(F)c4)S(=O)(=O)c4ccccc4)(C2)C3)N[C@H]1C(=O)NC1CC1` (mixture of isomers) [Example 68], the IC50 was determined as 55 nM.

`CC1(C)N=C(C23CC(N(Cc4ccc(Cl)c(Cl)c4)S(=O)(=O)CCC(F)F)(C2)C3)N[C@H]1C(=O)NCC1CC1(F)F` (mixture of isomers) [Example 103]: the IC50 was 68 nM.

On to `CC1(C)N=C(C23CC(N(Cc4ccc(Cl)c(F)c4)S(=O)(=O)c4ccccc4)(C2)C3)N[C@H]1C(=O)N1CCCC1` (mixture of isomers) [Example 185], for which the 50% inhibitory concentration (IC50) was determined as 109 nM.

As to `CC1(C)N=C(C23CC(N(Cc4ccc(Cl)c(F)c4)S(=O)(=O)c4ccccc4)(C2)C3)N[C@H]1C(=O)N1CC[C@@H](C(F)(F)F)C1` (mixture of isomers) [Example 125], the IC50 was 75 nM.

In the case of `CC1(C)N=C(C23CC(N(Cc4ccc(Cl)c(F)c4)S(=O)(=O)c4ccccc4)(C2)C3)N[C@H]1C(=O)NCC(F)(F)C(F)(F)F` (mixture of isomers) [Example 126], the concentration for half-maximal inhibition (IC50) is 76 nM.

As to `CC1(C)N=C(C23CC(N(Cc4ccc(Cl)c(F)c4)S(=O)(=O)c4ccccc4)(C2)C3)N[C@H]1C(=O)NCC(C)(C)C(F)(F)F` (mixture of isomers) [Example 163], the 50% inhibitory concentration (IC50) is 98 nM.

With `CC1(C)N=C(C23CC(N(Cc4ccc(C(F)(F)F)cc4)S(=O)(=O)c4ccc(F)cc4)(C2)C3)NC1C(=O)NCCC(F)(F)F` (stereo not shown) [Example 193], the IC50 came out at 115 nM.

Turning to `CC1(C)N=C(C23CC(N(Cc4ccc(Cl)cc4)S(=O)(=O)c4ccccc4)(C2)C3)N[C@H]1C(=O)NCCC(F)(F)F` (mixture of isomers) [Example 2], the IC50 was found to be 30 nM.

`COC1(CNC(=O)C2NC(C34CC(N(Cc5ccc(C(F)(F)F)cc5)S(=O)(=O)c5ccc(F)cc5)(C3)C4)=NC2(C)C)CCC1` (stereo not shown) [Example 237]: the IC50 amounted to 217 nM.

Take `CN(CCC(F)(F)F)C(=O)[C@@H]1NC(C23CC(N(Cc4ccc(Cl)c(Cl)c4)S(=O)(=O)CCC(F)F)(C2)C3)=NC1(C)C` (mixture of isomers) [Example 207]: the IC50 amounted to 137 nM.

Take `C[C@]1(C(=O)NC2CCCCC2)CN=C(C23CC(N(Cc4ccc(C(F)(F)F)cc4)S(=O)(=O)c4ccc(F)cc4)(C2)C3)N1` (mixture of isomers) [Example 268]: the concentration for half-maximal inhibition (IC50) amounted to 441 nM.

For the molecule `C[C@]1(C(=O)N2CCCC2)CN=C(C23CC(N(Cc4ccc(C(F)(F)F)cc4)S(=O)(=O)c4ccc(F)cc4)(C2)C3)N1` (mixture of isomers) [Example 262], the IC50 amounted to 395 nM.

As for `CC1(C)N=C(C23CC(N(Cc4ccc(Cl)c(F)c4)S(=O)(=O)c4ccccc4)(C2)C3)N[C@H]1C(=O)N1CC2CC2C1` (mixture of isomers) [Example 81], the IC50 came to 61 nM.

The values are drawn from patent US12128028B2, “Heterocyclic sulfonamide derivatives and pharmaceutical uses thereof” (METRION BIOSCIENCES LIMITED, priority 2018, dated 2024).
